Counter-ions that a name gives are not always drawn. Like-named read-outs stand apart in the source and are kept apart here.
How the values were obtained:
human IKK-β = target: T1, human IKK-β (Homo sapiens, UniProt O14920); test: IKK-β kinase inhibitory assay; format: biochemical; conditions: compounds of about 40 to 90% purity, read-out: In vitro activity grade (invitro, IC50)
T1 construct: A cDNA fragment encoding human IKK-β open reading frame was generated by PCR; His; made in house; host or cells: Sf21 insect cells (baculovirus); the GST-IκBα substrate was made in E. coli
T1 sequence (O14920 1-756): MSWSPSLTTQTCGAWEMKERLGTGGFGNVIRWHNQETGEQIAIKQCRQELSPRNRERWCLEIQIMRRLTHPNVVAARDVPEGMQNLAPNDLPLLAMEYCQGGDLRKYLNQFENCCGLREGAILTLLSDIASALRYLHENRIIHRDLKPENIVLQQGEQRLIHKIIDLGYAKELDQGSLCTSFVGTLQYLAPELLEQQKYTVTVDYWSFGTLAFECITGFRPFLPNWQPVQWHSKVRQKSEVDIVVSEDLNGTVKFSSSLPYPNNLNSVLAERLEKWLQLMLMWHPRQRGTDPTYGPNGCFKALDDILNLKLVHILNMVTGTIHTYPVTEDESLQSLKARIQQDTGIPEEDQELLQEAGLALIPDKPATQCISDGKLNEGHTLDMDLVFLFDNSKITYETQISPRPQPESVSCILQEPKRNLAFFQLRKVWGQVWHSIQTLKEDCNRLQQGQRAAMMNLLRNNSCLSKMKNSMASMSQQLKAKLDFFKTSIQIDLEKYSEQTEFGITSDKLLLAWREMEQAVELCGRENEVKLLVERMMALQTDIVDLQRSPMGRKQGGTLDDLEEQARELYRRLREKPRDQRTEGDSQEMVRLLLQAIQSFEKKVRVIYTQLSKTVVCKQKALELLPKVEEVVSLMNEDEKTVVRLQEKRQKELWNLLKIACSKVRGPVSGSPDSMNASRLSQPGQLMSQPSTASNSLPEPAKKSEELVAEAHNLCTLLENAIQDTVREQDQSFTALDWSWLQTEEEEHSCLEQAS
Source text: IKK-β Kinase Inhibitory Assay.
• (1) Preparation of IKK-β Kinase Protein. • A cDNA fragment encoding human IKK-β open reading frame was generated by PCR with the use of a pair of primers designed from the published sequence (Woronicz J D et al. (1997) Science 278,866-869). A template was obtained from Quickclone cDNA (Clontech) using Elongase™ Amplification kit (Life Technologies). The DNA fragments generated by PCR were gel-purified and subcloned into pBluescript. The cDNA fragment cloned in pBluescript was inserted into pcDNA3.1/His C KpnI/NotI, and transferred into pVL1393 SmaI/XbaI (Pharmingen) to construct a baculovirus transfer vector. Then the vector, together with the linearized baculovirus (BaculoGold™, Pharmingen) was used to transfect Sf21 cells (Invitrogen, San Diego, Calif.). Generated recombinant baculovirus was cloned and amplified in Sf21 cells, grown in TNM-FH insect cell medium (Life Technologies, Inc.) supplemented with 10% FCS, […] Gentamycin, 0.1% Pluronic F-68 (Life Technologies, Inc.) as suspension culture (200 ml in 1 L Erlenmeyer flask; 27° C.; 130 rpm). Sf21 cells were infected with this amplified virus with a multiplicity of infection of 5 following standard protocols (Crossen R, Gruenwald S (1997) Baculovirus Expression Vector System Instruction Manual, Pharmingen Corporation) and harvested 48 hrs. later. The cells were lysed to obtain the produced chimeric protein of IKK-β kinase fused by histidine (His-tagged IKK-beta). • (2) The Preparation of Purified GST-IκBα Fusion Proteins • An expression vector containing the nucleotide sequence encoding fusion protein of GST with amino acid residues 1 to 54 of IκBα under the control of an IPTG-inducible promoter was constructed. The expression vector was introduced in E. coli and the transformant was cultured and lysed to obtain a GST-IκBα fusion protein. Then the resulting GST-IκBα fusion protein was purified and biotinated for kinase assay. • (3) The Measurement of IKK-β Kinase Activity • The 96-well format kinase assay of IKK-β was performed to test the inhibitory activity of the compounds of the present invention. First, 5 μl of a test compound was put in the presence of 2.5% dimethyl sulfoxide (DMSO) in each well in a U-bottomed 96-well plate (Falcon). For control wells of background (BG) and total phosphorylation (TP), 5 μl of 2.5% DMSO was put. Recombinant IKK-β (final 0.6 μg/ml) and bio-GST-IκBα (1-54) (final 0.2 μM) were diluted in 25 μl of 2×kinase buffer β (40 mM Tris-HCl, pH 7.6, 40 mM MgCl2, 40 mM β-glycerophosphate, 40 mM p-nitrophenyl-phosphate, 2 mM EDTA, 40 mM creatine phosphate, 2 mM DTT, 2 mM Na3VO4, 0.2 mg/ml BSA and 0.8 mM phenylmethylsulfonyl fluoride) and transferred to the 96-well plate. Bio-GST-IκBα (1-54) in 25 μl of 2×kinase buffer β without IKK-β was transferred to BG wells. Then 20 μl of 12.5 μM ATP, 62.5 μCi/ml [γ-^33P] ATP (Amersham Pharmacia Biotech) was added and the resulting mixture was incubated for 2 hrs. at room temperature. The kinase reactions were terminated by the addition of 150 μl of termination buffer (100 mM EDTA, 1 mg/ml BSA, 0.2 mg NaN3). One handred and fifty μl of the sample was transferred to a streptavidin-coated, white MTP (Steffens Biotechniche Analysen GmbH #08114E14. FWD) to capture the biotinylated substrates. After 1 hr. of incubation, non-bound radioactivity was eliminated by washing the wells five times with 300 μl of washing buffer including 0.9% NaCl and 0.1% (w/v) Tween-20 with the use of a MW-96 plate washer (BioTec). The bound radioactivity was determined after the addition of 170 μl MicroScint-PS scintillation cocktail (Packard) using a TopCount scintillation counter. Syk Tyrosine Kinase Inhibitory Assay for Selectivity. • (1) Preparation of Syk Protein • A cDNA fragment encoding human Syk openreading frame was cloned from total RNA of human Burkitt's lymphoma B cell lines, Raji (American Type Culture Collection), with the use of RT-PCR method. […]

[1] = test system: RANTES production in response to TNF-α from A549 cells; test: RANTES production in response to TNF-α from A549 cells; format: cell-based, human; conditions: 100 ng/ml TNF-α, compounds of about 40 to 90% purity, read-out: Cellular activity grade (A549, IC50)

IC50 (human IKK-β)	IC50 ([1]; Homo sapiens, A549, 24 h)	IC50 ([1]; 24 hrs)	SMILES
500 to 2000 nM	1000 to 10000 nM	–	N#Cc1c(-c2cccc(NC(=O)CCN3CCCC4CCCCC43)c2)cc(-c2ccccc2O)nc1N (stereo not drawn) [Example 4-15]
2000 to 10000 nM	–	–	Nc1cc(-c2cccc(NC(=O)CNCC3CC3)c2)cc(-c2ccccc2O)n1 [Example 4-39]
500 to 2000 nM	1000 to 10000 nM	–	N#Cc1c(-c2ccc(N3CCC[C@H]3CO)c(NC(=O)CCN3CCCCC3)c2)cc(-c2ccccc2O)nc1N [Example 3-12]
> 10000 nM	1000 to 10000 nM	–	N#Cc1c(-c2ccc(OCC3CC3)c(NC(=O)CNCC3CC3)c2)cc(-c2ccccc2O)nc1N [Example 4-34]
2000 to 10000 nM	> 10000 nM	–	N#Cc1c(-c2cccc(NC(=O)C(O)CCC(=O)O)c2)cc(-c2cc(Cl)ccc2O)nc1N (stereo not drawn) [Example 1-17]
500 to 2000 nM	> 10000 nM	–	N#Cc1c(-c2cccc(NC(=O)C(O)CCC(=O)O)c2)cc(-c2ncccc2O)nc1N (stereo not drawn) [Example 1-22]
500 to 2000 nM	> 10000 nM	–	N#Cc1c(-c2ccc(Cl)c(NC(=O)CNCC3CC3)c2)cc(-c2ccccc2O)nc1N [Example 4-30]
< 500 nM	1000 to 10000 nM	–	N#Cc1c(-c2ccc(N)c(O)c2)cc(-c2ccccc2O)nc1N [Example 2-15]
500 to 2000 nM	–	1000 to 10000 nM	CN(C)c1ccc(-c2cc(-c3ccccc3O)nc(N)c2C#N)cc1NC(=O)CCN1CCCCC1 [Example 4-36]
500 to 2000 nM	1000 to 10000 nM	–	N#Cc1c(-c2cc(NC(=O)CCN3CCCCC3)ccc2Cl)cc(-c2ccccc2O)nc1N [Example 2-10]
2000 to 10000 nM	> 10000 nM	–	N#Cc1c(-c2cc(NC(=O)CCN)ccc2F)cc(-c2ccccc2O)nc1N [Example 2-12]
> 10000 nM	> 10000 nM	–	CC(=O)Nc1cccc(-c2cc(-c3ccccc3O)nc(N)c2C#N)c1 [Example 1-14]
< 500 nM	1000 to 10000 nM	–	N#Cc1c(-c2ccc(N3CCC(NC(=O)C(F)(F)F)C3)c(NC(=O)CNCC3CC3)c2)cc(-c2ccccc2O)nc1N (stereo not drawn) [Example 4-38]
2000 to 10000 nM	> 10000 nM	–	CC(=O)N1CCN(CC(=O)Nc2cccc(-c3cc(-c4ccccc4O)nc(N)c3C#N)c2)CC1 [Example 4-05]
< 500 nM	> 10000 nM	–	COCCNCC(=O)Nc1cc(-c2cc(-c3ccccc3O)nc(N)c2C#N)ccc1Cl [Example 4-25]
500 to 2000 nM	> 10000 nM	–	N#Cc1c(-c2cccc(NC(=O)CCN3CCCC(C(=O)O)C3)c2)cc(-c2ccccc2O)nc1N (stereo not drawn) [Example 4-29]

IC50 (human IKK-β)	IC50 ([1]; Homo sapiens, A549, 24 h)	IC50 ([1]; 24 hrs)	SMILES
2000 to 10000 nM	1000 to 10000 nM	–	CC(C)C[C@H](N)C(=O)Nc1cc(-c2cc(-c3ccccc3O)nc(N)c2C#N)ccc1N(C)Cc1ccccc1 [Example 3-15]
500 to 2000 nM	1000 to 10000 nM	–	CC(C)C[C@H](N)C(=O)Nc1ccc(F)c(-c2cc(-c3ccccc3O)nc(N)c2C#N)c1 [Example 2-11]
< 500 nM	1000 to 10000 nM	–	N#Cc1c(-c2ccc(N3CCCC3)c(NC(=O)CCN)c2)cc(-c2ccccc2O)nc1N [Example 3-04]
500 to 2000 nM	> 10000 nM	–	N#Cc1c(-c2ccc(C(=O)NCCN3CCCCC3)cc2)cc(-c2ccccc2O)nc1N [Example 6-02]
< 500 nM	–	1000 to 10000 nM	CC(=O)Nc1ccc(-c2cc(-c3ccccc3O)nc(N)c2CO)cc1O [Example 8-05]
500 to 2000 nM	1000 to 10000 nM	–	CCCNCC(=O)Nc1cccc(-c2cc(-c3ccccc3O)nc(N)c2C#N)c1 [Example 4-19]
> 10000 nM	–	> 10000 nM	N#Cc1c(-c2cccc(N)c2)cc(-c2ccccc2O)nc1N [Example 1-08]
500 to 2000 nM	–	1000 to 10000 nM	N#Cc1c(-c2cccc(NC(=O)C3CCC(=O)O3)c2)cc(-c2ccccc2O)nc1N (stereo not drawn) [Example 1-1, N-{3-[2-amino-3-cyano-6-(2-hydroxyphenyl)-4-pyridinyl]phenyl}-5-oxotetrahydro-2-furancarboxamide]
500 to 2000 nM	1000 to 10000 nM	–	N#Cc1c(-c2cccc(NC(=O)CN3CC=CC3)c2)cc(-c2ccccc2O)nc1N [Example 4-14]
500 to 2000 nM	1000 to 10000 nM	–	N#Cc1c(-c2cccc(NC(=O)NCCN3CCCCC3)c2)cc(-c2ccccc2O)nc1N [Example 2-09]
< 500 nM	< 1000 nM	–	CC(=O)Nc1ccc(-c2cc(-c3ccccc3O)nc(N)c2CO)cc1O [Example 8-04]
2000 to 10000 nM	> 10000 nM	–	N#Cc1c(-c2cccc(C(=O)O)c2)cc(-c2ccccc2O)nc1N [Example 5-1, Sodium 3-[2-amino-3-cyano-6-(2-hydroxyphenyl)-4-pyridinyl]benzoate]
< 500 nM	> 10000 nM	–	N#Cc1c(-c2cccc(NC(=O)C[C@H](N)C(=O)O)c2)cc(-c2ccccc2O)nc1N [Example 1-09]
2000 to 10000 nM	–	–	CCn1c(=O)oc2cc(-c3cc(-c4c(O)cccc4OCC4CC4)nc4c3COC(=O)N4)ccc21 [Example 8-2, 7-[2-(cyclopropylmethoxy)-6-hydroxyphenyl-5-(3-ethyl-2-oxo-2,3-dihydro-1,3-benzoxazol-6-yl)-1,4-dihydro-2H-pyrido[2,3-d][1,3]oxazin-2-one hydrochloride]
< 500 nM	–	–	CC(=O)Nc1ccc(-c2cc(-c3c(O)cccc3OCC3CC3)nc(N)c2CO)cc1O [Example 8-3, N-{4-[2-amino-6-[2-(cyclopropylmethoxy)-6-hydroxyphenyl]-3-(hydroxymethyl)-4-pyridinyl]-2-hydroxyphenyl}acetamide hydrochloride]
500 to 2000 nM	–	–	CCNc1ccc(-c2cc(-c3c(O)cccc3OCC3CC3)nc(N)c2CO)cc1O [Example 8-1, 2-[6-amino-4-[4-(ethylamino)-3-hydroxyphenyl]-5-(hydroxymethyl)-2-pyridinyl]-3-(cycloproylmethoxy)phenol hydrochloride]

— patent US7410986B2, “4-6-diphenyl pyridine derivatives as antiinflammatory agents” (Bayer Aktiengesellschaft, priority 2000, dated 2008)
